Converted amounts (≈) assume the structure as drawn. “And” between values parts separate entries of the source, which are not always exact repeats. Equal values may be shown once.
Assays:
[1] = test system: human subjects with visual acuity loss due to diabetic macular edema; test: Central foveal/retinal thickness by ocular coherence tomography in diabetic macular edema study (Example 35); format: in vivo
Protocol: At any time during the course of the study, investigators could administer additional therapy consisting of intravitreal injection of an anti-VEGF agent, for example, ranibizumab, bevacizumab and/or aflibercept, if considered by the investigator to be medically necessary. Retinal thickness as measured by ocular coherence tomography and best corrected visual acuity as measured by a standard vision test (ETDRS) were assessed at regular intervals during the 28 day active treatment phase and through the 2 month post-treatment observation phase, (Screening, Day 1 [baseline], Day 7, Day 14, Day 21, Day 28, Day 42, Day 56 and Day 84). The main efficacy outcomes for the study were change in CRT and visual acuity over time with treatment. […] The mean change in Central Foveal Thickness was −289 μm, approximately double the reduction seen after ranibizumab injection in the study in FIG. 1. FIG. 5 represents the results of a single patient. The eye having the greater Central Foveal Thickness was chosen as the Study Eye. […] At week 3 (21 days, indicated by arrow) the fellow eye was treated with 0.5 mg of ranibizumab by injection. At week 6 (42 days, indicated by arrow) the treated eye was treated with 0.5 mg of ranibizumab. […] As a result, there was a pronounced reduction in CFT in the study eye from day 21 to day 28 (approximately 250 µm). […] At week 6, the study eye was treated with an intravitreal injection of 0.5 mg of ranibizumab. […] Compared to the study depicted in FIG. 1 wherein the average change in CFT at one month after ranibizumab injection was approximately […], the combination disclosed method provided substantially greater reductions at 2-4 weeks following ranibizumab injection. FIG. 6 represents the results of a single patient. The eye having the greater Central Foveal Thickness was chosen as the Study Eye. […] At week 4 (28 days, indicated by arrow) the fellow eye was rescued with 2 mg of aflibercept. […] At week 6 (42 days, indicated by arrow) the study eye was rescued with 2 mg of aflibercept. […] Unlike the results depicted for the ranibizumab protocol, there was no evidence of systemically delivered aflibercept to the Fellow Eye.

[2] = Room temperature aqueous solubility with solubilizing agents (Example 36); format: physicochemical
Text: The room temperature aqueous solubility (mg/mL) of the a compound (4-{(S)-2-[(S)-2-methoxycarbonylamino)-3-phenylpropanamido]-2-[2-(thiophen-2-yl)thiazol-4-yl]ethyl}phenylsulfamic acid) in water, HPβCD, Poloxamer 407, and sulfobutylether-β-cyclodextrin, is provided in TABLE XXVII. Solubility in saline for the test compound is reduced presumably due to the common ion effect.
The solubility (mg/mL) of the test compound in mixtures of HPβCD and PEG400 is illustrated in TABLE XXVIII.

Structure (SMILES)	Central Foveal Reduction, single patient eye ([1]; 5 mg subcutaneously twice daily for 28 days, subsequently ranibizumab (0.3 or 0.5 mg) or aflibercept (2 mg) intravitreal, 14-28 days post ranibizumab or aflibercept, 7 eyes)	fall of Central Foveal Thickness of the fellow eye ([1]; single patient (FIG. 5), 5 mg s.c. twice daily from day one, fellow eye 0.5 mg ranibizumab at week 3, by week 4 (28 days)) [μm]	overall reduction in CFT of the study eye ([1]; single patient (FIG. 5), by week 8, after 0.5 mg ranibizumab at week 6)	reduction in CFT in the study eye ([1]; single patient (FIG. 5), from day 21 to day 28)	reduction of CFT in the non-treated eye from onset of the study ([1]; single patient (FIG. 6)) [μm]	reduction of CFT in the study eye from onset of the study ([1]; single patient (FIG. 6))	CFT reduction of the Fellow eye after rescue ([1]; single patient (FIG. 6), 5 mg s.c. twice daily from day one, fellow eye rescued with 2 mg aflibercept at week 4)	CFT reduction of the Study eye after rescue ([1]; single patient (FIG. 6), study eye rescued with 2 mg aflibercept at week 6)	solubility in saline ([2]; room temperature, compared with water)	Solubility ([2]; aqueous with cosolvent or surfactant or cyclodextrin) [mg/mL]	Solubility ([2]; water) [mg/mL]
COC(=O)N[C@@H](Cc1ccccc1)C(=O)N[C@@H](Cc1ccc(NS(=O)(=O)O)cc1)c1csc(-c2cccs2)n1	50-100 μm and 150-200 μm and 200-250 μm and 300-350 μm and 350-400 μm and 450-500 μm	350	approximately 500 μm	approximately 250 µm	~280	approximately 300 μm	approximately 400 μm	approximately 300 μm	reduced		
COC(=O)N[C@@H](Cc1ccccc1)C(=O)N[C@@H](Cc1ccc(NS(=O)(=O)O)cc1)c1nc(-c2cccs2)cs1										42 (≈ 71.6 mM)	38 (≈ 64.8 mM)
